# Source: PubChem BioAssay (NCI)
# Values joined by “and” are separate entries in the source; they are usually repeats but may differ in a detail not shown here. Equal values may be shown once.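 Grown in 96-well plates, cells were treated for 48 hours with each compound at five concentrations. Insufficient inhibition: endpoint recorded as highest concentration tested. GI50: concentration for 50% inhibition of growth. TGI is the concentration that stops growth completely.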
# What was measured:
# Test in all cases: DTP human tumour cell line panel, 48 h
# SK-MEL-5 melanoma = test system: SK-MEL-5 melanoma
# K-562 leukemia = test system: K-562 leukemia
# UACC-257 melanoma = test system: UACC-257 melanoma
# CCRF-CEM leukemia = test system: CCRF-CEM leukemia
# OVCAR-4 ovarian = test system: OVCAR-4 ovarian
# HT29 colon = test system: HT29 colon
# SW-620 colon = test system: SW-620 colon
# MDA-MB-231 breast = test system: MDA-MB-231 breast
# RPMI-8226 leukemia = test system: RPMI-8226 leukemia
# SF-268 CNS = test system: SF-268 CNS
Structure (SMILES),GI50 (SK-MEL-5 melanoma),TGI (SK-MEL-5 melanoma),GI50 (K-562 leukemia),TGI (K-562 leukemia),GI50 (UACC-257 melanoma),TGI (UACC-257 melanoma),GI50 (CCRF-CEM leukemia),TGI (CCRF-CEM leukemia),GI50 (OVCAR-4 ovarian),TGI (OVCAR-4 ovarian),GI50 (HT29 colon),TGI (HT29 colon),GI50 (SW-620 colon),TGI (SW-620 colon),GI50 (MDA-MB-231 breast),TGI (MDA-MB-231 breast),GI50 (RPMI-8226 leukemia),TGI (RPMI-8226 leukemia),GI50 (SF-268 CNS),TGI (SF-268 CNS)
Cc1cc(-c2ccccc2)c(C)n1Cc1ccc(Cl)cc1,4.23 µM,66.8 µM,0.84 µM,> 100 µM,5.39 µM,78.6 µM,3.46 µM,> 100 µM,9.56 µM,> 100 µM,3.28 µM,17.6 µM,3.06 µM,> 100 µM,6.17 µM,32.3 µM,3.83 µM,61.6 µM,13.6 µM,> 100 µM
O=C1Nc2ccccc2C12CC(c1ccccc1)=NN2 (configuration not stated),4.81 µM,> 100 µM,3.98 µM,> 100 µM,5.02 µM,> 100 µM,5.52 µM,> 100 µM,23.6 µM,> 100 µM,3.73 µM,27.5 µM,3.75 µM,> 100 µM,8.61 µM,79.7 µM,5.53 µM,90.5 µM,11.9 µM,> 100 µM
CN(C)CCCNC(=O)c1cc2c3ccccc3[nH]c2c2ncccc12,13.5 µM,26.6 µM,27.6 µM,> 100 µM,15 µM,32.4 µM,4.31 µM,56.4 µM,21 µM,81.4 µM,10.3 µM,50.4 µM,6.34 µM,33.4 µM,14.4 µM,74.9 µM,7.42 µM,32.8 µM,16.7 µM,64.1 µM
COc1cc(C2c3cc4c(cc3C3OC(=O)C2C3CO)OCO4)cc(OC)c1OC (configuration not stated),0.0176 µM,0.047 µM,0.0205 µM,> 100 µM,,> 100 µM,0.0271 µM,> 100 µM,0.0446 µM,> 100 µM,0.012 µM,> 100 µM,0.0244 µM,> 100 µM,0.03 µM,0.0901 µM,0.0282 µM,> 100 µM,0.0395 µM,> 100 µM
COc1cc2c(cc1OCCCCC(=O)Nc1ccc(-c3nc4ccccc4s3)cc1)N=C[C@@H]1CCCN1C2=O,1.76 µM,3.17 µM,1.75 µM,11 µM,1.73 µM,3.81 µM,1.2 µM,3.62 µM,2.82 µM,27.9 µM,2.16 µM,7.75 µM,1.64 µM,4.03 µM,2.08 µM,10.2 µM,1.45 µM,3.96 µM,2.04 µM,5.66 µM
CCN(CC)c1ccc(/C=C/C(=O)c2cccc(NS(C)(=O)=O)c2)cc1,4.21 µM,> 100 µM,3.47 µM,> 100 µM,92.5 µM,> 100 µM,3.19 µM,18.1 µM,6.27 µM,> 100 µM,3.15 µM,> 100 µM,3.27 µM,> 100 µM,9.7 µM,> 100 µM,2.34 µM,20.8 µM,18.5 µM,> 100 µM
CC1=C[C@H]2c3c(c(O)c(O)c4oc5cc(O)cc(O)c5c(=O)c34)[C@H](c3cc(O)c(O)c4oc5cc(O)cc(O)c5c(=O)c34)[C@H]2C(C)(C)C1,1.53 µM and 1.43 µM,2.89 µM and 2.84 µM,0.477 µM and 0.536 µM,10.3 µM and > 100 µM,3.02 µM and 4.3 µM,9.78 µM and 21.6 µM,0.641 µM,4.1 µM,3.92 µM and 2.9 µM,23.2 µM and 16.6 µM,1.49 µM and 2.96 µM,5.74 µM and 12 µM,1.26 µM and 1.28 µM,4.69 µM and 3.5 µM,1.46 µM and 1.83 µM,4.01 µM and 5.62 µM,0.915 µM and 0.392 µM,4.57 µM and 2.04 µM,2.14 µM and 2.09 µM,11.3 µM and 11.8 µM
OC(COc1ccc(Cl)cc1Cl)CN1CCCC1 (configuration not stated),,> 100 µM,,> 100 µM,,60.2 µM,,> 100 µM,,> 100 µM,,69.9 µM,,> 100 µM,,> 100 µM,,> 100 µM,,> 100 µM
Cc1sc2nc(-c3ccccn3)c(/C=N/N=C(N)N)n2c1C,3.58 µM,8.13 µM,> 51.5 µM,> 100 µM,10.7 µM,27 µM,6.02 µM,19 µM,5.15 µM,13.3 µM,5.68 µM,> 17.4 µM,4.5 µM,13.5 µM,3.3 µM,6.94 µM,4.23 µM,12.1 µM,8.15 µM,29.8 µM
O=C(Cc1ccc(/C=C/C(=O)c2ncc[nH]2)cc1)Nc1ccc(Br)cc1,5.77 µM,> 16.7 µM,0.745 µM,> 16.7 µM,6.64 µM,> 16.7 µM,0.759 µM,> 16.7 µM,3.42 µM,> 16.7 µM,0.726 µM,3.71 µM,0.873 µM,4.49 µM,3.97 µM,13.4 µM,0.705 µM,4.06 µM,1.83 µM,> 16.7 µM
COc1ccc(S(=O)(=O)O)cc1NS(=O)(=O)c1ccc(C)cc1,,> 100 µM,,> 100 µM,,> 100 µM,,> 100 µM,,> 100 µM,,> 100 µM,,> 100 µM,,> 100 µM,,> 100 µM,,> 100 µM
CC(C)[C@@H](C(=O)O[C@@H]1/C=C/C(=O)O[C@@H](C)CCC/C=C/[C@@H]2C[C@H](O)C[C@H]21)[N+](C)(C)C,> 100 µM,> 100 µM,> 100 µM,> 100 µM,> 100 µM,> 100 µM,> 100 µM,> 100 µM,> 100 µM,> 100 µM,> 100 µM,> 100 µM,> 100 µM,> 100 µM,> 100 µM,> 100 µM,> 100 µM,> 100 µM,> 100 µM,> 100 µM
COc1cc2c(cc1OCCCCCCNC(=O)c1cc3ccccc3[nH]1)N=CC1CCCN1C2=O (configuration not stated),14.2 µM,32 µM,30.5 µM,> 100 µM,14.4 µM,51.2 µM,27.3 µM,> 100 µM,89.4 µM,> 100 µM,41.8 µM,> 100 µM,38.6 µM,> 100 µM,20.9 µM,79.1 µM,18.7 µM,77.6 µM,6.8 µM,26 µM
Nc1c(C(=O)Nc2cccc3ccccc23)sc2nc3c(cc12)CCCC3,0.459 µM,10.7 µM,0.349 µM,> 100 µM,40.5 µM,> 100 µM,0.658 µM,> 100 µM,1.11 µM,> 100 µM,1.18 µM,> 100 µM,0.552 µM,> 100 µM,5.23 µM,> 100 µM,2.77 µM,> 100 µM,3.74 µM,> 100 µM
COC(=O)c1[nH]nc(-c2ccccc2)c1N1CCCCC1,34 µM,> 100 µM,57.2 µM,> 100 µM,39.7 µM,> 100 µM,72.9 µM,> 100 µM,86.7 µM,> 100 µM,57.9 µM,> 100 µM,75.6 µM,> 100 µM,31.2 µM,65.9 µM,38 µM,> 100 µM,20.8 µM,53.5 µM
Cc1cc(C)cc(Nc2nccc(-c3c(-c4ccc(F)cc4)ncn3C3CCNCC3)n2)c1,1.75 µM,3.31 µM,1.03 µM,3.59 µM,2.09 µM,4.17 µM,1.92 µM,5.97 µM,1.49 µM,3.46 µM,0.78 µM,2.43 µM,1.44 µM,3.07 µM,1.5 µM,3.09 µM,2.07 µM,5.18 µM,1.48 µM,3.96 µM
c1ccc(Cn2cc3c(c2)-c2oncc2CC3)cc1,0.348 µM,11.8 µM,0.387 µM,> 100 µM,22.7 µM,98.5 µM,0.348 µM,,3.26 µM,> 66.9 µM,0.398 µM,13.6 µM,0.428 µM,> 100 µM,1.36 µM,51.9 µM,0.285 µM,2.38 µM,1.78 µM,38.9 µM
O=C(Cc1ccccc1)Nc1nnc(CCSCCc2nnc(NC(=O)Cc3ccccc3)s2)s1,58 µM,> 100 µM,1.34 µM,> 100 µM,> 100 µM,> 100 µM,> 100 µM,> 100 µM,3.96 µM,32.7 µM,> 100 µM,> 100 µM,> 100 µM,> 100 µM,6.51 µM,25.7 µM,5.67 µM,> 100 µM,12.3 µM,62 µM
N#Cc1cc2cc3c4c(c2oc1=O)CCCN4CCC3,,> 100 µM,,> 100 µM,,> 100 µM,,> 100 µM,,> 100 µM,,> 100 µM,,> 100 µM,,> 100 µM,,> 100 µM,,> 100 µM
O=C1C=C(N2CC2)c2ccccc2C1=O,1.6 µM,3.04 µM,2.6 µM,5.66 µM,1.69 µM,3.1 µM,2.32 µM,6.23 µM,1.48 µM,2.8 µM,2.58 µM,5.57 µM,1.34 µM,2.92 µM,2.05 µM,5.11 µM,1.81 µM,5.13 µM,1.79 µM,3.71 µM
O=S(=O)(NC(=S)Nc1ccccc1)c1ccc(N2N=C3c4ccccc4CC3C2c2ccc(Cl)cc2)cc1 (configuration not stated),20.4 µM,40.9 µM,16.4 µM,42.1 µM,29.5 µM,70.5 µM,19.7 µM,57.5 µM,42.2 µM,> 100 µM,41.6 µM,> 100 µM,29.7 µM,75.7 µM,87.1 µM,> 100 µM,19.6 µM,66.7 µM,20.7 µM,51.1 µM
O=C1OCC2=C1C(c1cccc(F)c1)c1cc3c(cc1N2CCO)OCCO3 (configuration not stated),0.162 µM,,0.122 µM,> 50 µM,> 20 µM,> 50 µM,0.237 µM,> 50 µM,1.97 µM,> 50 µM,0.178 µM,> 50 µM,0.186 µM,> 50 µM,0.32 µM,> 20.3 µM,0.207 µM,> 50 µM,0.381 µM,> 50 µM
COc1ccc(N2CCN(CC(=O)N3CCN(c4nnc(-c5ccccc5)c(-c5ccccc5)n4)CC3)CC2)cc1,2.32 µM,6.63 µM,5.6 µM,> 100 µM,27.1 µM,> 90.6 µM,6.61 µM,> 100 µM,3.61 µM,> 100 µM,3.19 µM,11.3 µM,10.4 µM,> 100 µM,65.3 µM,> 100 µM,3.98 µM,31.1 µM,9.16 µM,> 100 µM
CC(=O)OCCC/C(=C\c1ccc2ccccc2c1)[N+](=O)[O-],1.72 µM,3.29 µM,2.01 µM,> 100 µM,1.81 µM,3.54 µM,2.19 µM,7.88 µM,1.76 µM,3.39 µM,2.3 µM,5.59 µM,1.44 µM,3.27 µM,2.02 µM,4.59 µM,1.55 µM,3.72 µM,1.67 µM,3.43 µM
NC1=CC(=O)C(=O)c2cccnc21,1.51 µM,2.84 µM,3.03 µM,10.6 µM,2.23 µM,6.7 µM,3.16 µM,10.5 µM,2.59 µM,8.15 µM,15.1 µM,38.7 µM,8.67 µM,24.3 µM,1.93 µM,18.8 µM,2.65 µM,9.91 µM,4.81 µM,18 µM
CC(C)(C)c1ccc(C(=O)N/N=C/c2ccc(O)cc2O)cc1,0.913 µM,3.4 µM,0.476 µM,20.1 µM,0.557 µM,21.4 µM,0.26 µM,> 36.9 µM,0.238 µM,14.9 µM,0.885 µM,8.33 µM,0.62 µM,13.1 µM,0.5 µM,5.83 µM,0.784 µM,20.9 µM,0.358 µM,8.19 µM
